Assay results from PMC2981816, “Oxalyl retro-peptide gelators. Synthesis, gelation properties and stereochemical effects” (Beilstein Journal of Organic Chemistry, 2010).

How the values were obtained:
Format in all cases: physicochemical
[1] = Gelation test: gelator effectiveness (Geff) and minimal gelation concentration in solvents and solvent mixtures; set-up: key to Gelator effectiveness (Geff): sol.: soluble; ins.: insoluble; cr.: crystallization; [A]: gel/sol mixture; settings: for Gelator effectiveness (Geff): Table 1
Description: Gelation observed for selected gelator–solvent pairs is expressed by gelator effectiveness (Geff, mL) corresponding to the maximal volume of solvent that could be immobilized by 10 mg of the gelator (Table 1). […] However, 3a and 5a also gelled small to moderate volumes of EtOH and rac-2-octanol, whilst Leu incorporating 1a formed gels with the more lipophilic solvents, decalin and tetralin. […] Apparently, the retro-peptides incorporating aliphatic and aromatic amino acids are less versatile gelators compared to retro-peptides containing […] amino acid fragments. The latter points to the importance of intermolecular lipophilic interactions for the stabilization of gel assemblies being stronger in the case of identical amino acids either lipophilic or aromatic, and weaker for mixed aromatic-lipophilic amino acid fragments present in the gelator molecule.

[2] = TEM of gel networks (PWK negative staining), fiber diameters; settings: water/DMSO gel
Source text: TEM images of diastereomeric (S,S)-1a and (S,R)-1a water/DMSO gels (Figure 2 and Figure 3) show highly distinct morphology of gel networks. In the first gel rather straight fibers and fiber bundles with diameters in the range of 40–100 nm could be observed. […] As observed earlier for other gel systems, gelator effectiveness Geff depends not only solubility but also depends on the thickness of fibers constituting the network. […] The TEM observed thicknesses of gel aggregates existing in water/DMSO and toluene gels could be also correlated with gelator effectiveness (Geff, mL, see Table 1 and Table 2). It appears that (S,R)-1b (Geff 19.5 mL, water/DMSO gel) organized in thinner fibers is more than twice effective a gelator than its diasteroisomer (S,S)-1a (Geff 8.0 mL, water/DMSO gel) which forms thicker fiber bundles. In the toluene gel, (S,R)-1b organizes into wide and short tapes with low networking capacity which is reflected in a very low (Geff 0.15 mL) gelator effectiveness. page 11: TEM and SEM investigations: transmission electron micrographs were taken on an EM 10 A Zeiss or FEI Morgagni 268D transmission electron microscope. A small amount of sample was placed on carbon-coated grid (copper, 100 mesh). The sample was negatively stained with PWK (dipotassium phosphotungstate). […]

[3] = Gelation test: gelator effectiveness (Geff) and minimal gelation concentration in solvents and solvent mixtures

Gelator effectiveness (Geff) ([1]; max. volume immobilized by 10 mg gelator, CH2Cl2): ins. | Gelator effectiveness (Geff) ([1]; max. volume immobilized by 10 mg gelator, CH3CN): cr. | Gelator effectiveness (Geff) ([1]; max. volume immobilized by 10 mg gelator, EtOH): sol. | Gelator effectiveness (Geff) ([1]; max. volume immobilized by 10 mg gelator, H2O/DMF mixture, given as volume + volume): 5.84+3.25 mL | Gelator effectiveness (Geff) ([1]; max. volume immobilized by 10 mg gelator, H2O/DMSO mixture, given as volume + volume): 5.09+2.98 mL | Gelator effectiveness (Geff) ([1]; max. volume immobilized by 10 mg gelator, THF): sol. | Gelator effectiveness (Geff) ([1]; max. volume immobilized by 10 mg gelator, decalin): 0.2 mL | Gelator effectiveness (Geff) ([1]; max. volume immobilized by 10 mg gelator, p-xylene): ins. | Gelator effectiveness (Geff) ([1]; max. volume immobilized by 10 mg gelator, tetralin): 1.8 mL | Gelator effectiveness (Geff) ([1]; max. volume immobilized by 10 mg gelator, toluene): cr. | Gelator effectiveness (Geff) ([1]; max. volume immobilized by 10 mg gelator, ±2-octanol): ins. | Gelator effectiveness (Geff) ([1]; maximal volume of solvent immobilized by 10 mg of gelator, solvent H2O): ins. | Geff, total volume ([1]; water/DMSO gel, total of both solvent volumes, 10 mg gelator): 8.0 mL | times more effective in gelation than 3a and 5a ([1]; water/DMSO or DMF mixtures): more than 2 times | fiber / fiber bundle diameter [2]: 40–100 nm | solubility in water [3]: insoluble
Compound: CC(C)C[C@H](NC(=O)[C@H](CC(C)C)NC(=O)C(=O)N[C@@H](CC(C)C)C(=O)N[C@@H](CC(C)C)C(=O)O)C(=O)O [(S,S)-1a, (S,S)-bis(LeuLeu)]
